This note sets out measurements from PubChem BioAssay (NCI).

Some test systems named below: A549 NSCLC; CCRF-CEM leukemia; EKVX NSCLC; HCT-116 colon; IGROV1 ovarian; LOX IMVI melanoma; OVCAR-8 ovarian; SK-MEL-5 melanoma; SN12C renal; UACC-257 melanoma.
Common to all, as to assay: growth of human tumour cells (NCI), 48 h

Values joined by “and” are separate entries in the source; they are usually repeats but may differ in a detail not shown here. Identical values can stand only once.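 Cells were grown in 96-well plates and exposed to each compound for 48 hours at five concentrations; endpoints were interpolated linearly between bracketing concentrations, or set to the highest concentration if not reached. The concentration for 50% growth inhibition is given as GI50. Definition used: TGI = concentration required for complete inhibition of growth.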

As for `OCCCNCc1ccccn1`, the TGI in the experiment on A549 NSCLC, in the experiment with CCRF-CEM leukemia, in the experiment with EKVX NSCLC, in the experiment on HCT-116 colon, in the experiment with IGROV1 ovarian and in the experiment on LOX IMVI melanoma was greater than 100 µM throughout. The TGI in the experiment with OVCAR-8 ovarian, in the experiment on SK-MEL-5 melanoma, in the experiment with SN12C renal and in the experiment on UACC-257 melanoma was greater than 100 µM throughout.

On to `CCOC(=O)/C=C/c1ccc(C(=O)OCC)[nH]1`, for which the GI50 in the experiment on A549 NSCLC is 5.69 µM; in the experiment with CCRF-CEM leukemia it was 6.04 µM; with EKVX NSCLC, 9.89 µM; in the experiment on HCT-116 colon, 4.56 µM; with IGROV1 ovarian, 4.84 µM; in the experiment with LOX IMVI melanoma it was 5.29 µM. Further, the GI50 in the experiment on OVCAR-8 ovarian is 5.82 µM; with SK-MEL-5 melanoma it was 2.34 µM; with SN12C renal, 5.11 µM; in the experiment with UACC-257 melanoma, 11.3 µM. In addition, the TGI with A549 NSCLC, in the experiment on CCRF-CEM leukemia, with EKVX NSCLC, in the experiment with HCT-116 colon, in the experiment with IGROV1 ovarian and in the experiment on LOX IMVI melanoma was greater than 100 µM throughout. Besides, the TGI was greater than 100 µM in the experiment on OVCAR-8 ovarian, 8.01 µM with SK-MEL-5 melanoma, greater than 100 µM with SN12C renal and greater than 100 µM with UACC-257 melanoma.

Regarding `CC(O)C(NC(=O)C(CS)NC(=O)C(CO)NC(=O)C(CCCCN)NC(=O)C(Cc1c[nH]c2ccccc12)NC(=O)C(Cc1ccc(O)cc1)NC(=O)C(CS)NC(=O)C(N)Cc1ccccc1)C(N)=O` (stereo not given), the GI50 was 18.7 µM with A549 NSCLC; 19.7 µM in the experiment on CCRF-CEM leukemia; 36.1 µM in the experiment with EKVX NSCLC; 32.9 µM with HCT-116 colon; 20.2 µM with IGROV1 ovarian; 28.6 µM in the experiment with SN12C renal. Moreover, the TGI in the experiment with A549 NSCLC was > 25 µM and 51.6 µM; with CCRF-CEM leukemia, > 25 µM and 43.3 µM; in the experiment with EKVX NSCLC it was > 25 µM and 83.9 µM; in the experiment on HCT-116 colon, greater than 100 µM; with IGROV1 ovarian, > 25 µM and 44 µM; in the experiment on LOX IMVI melanoma, greater than 25 µM. Further, the TGI in the experiment on OVCAR-8 ovarian is > 25 µM and 81.5 µM; in the experiment on SK-MEL-5 melanoma it was greater than 25 µM; in the experiment with SN12C renal, > 25 µM and 84.2 µM; with UACC-257 melanoma, > 25 µM and 65.9 µM.

Turning to `O=C(N/N=C/c1ccc(F)cc1)c1[nH]c2ccc(I)cc2c1-c1ccccc1`, the GI50 is 0.76 µM in the experiment with A549 NSCLC; 0.383 µM in the experiment on CCRF-CEM leukemia; 0.47 µM in the experiment on EKVX NSCLC; 0.325 µM in the experiment on HCT-116 colon; 0.45 µM with IGROV1 ovarian; 0.767 µM in the experiment with LOX IMVI melanoma. Also, the GI50 with OVCAR-8 ovarian is 0.971 µM; in the experiment with SK-MEL-5 melanoma, 0.417 µM; in the experiment on SN12C renal, 1.63 µM; in the experiment on UACC-257 melanoma, 3.73 µM. Moreover, the TGI was greater than 54.5 µM with A549 NSCLC; greater than 26.9 µM in the experiment with EKVX NSCLC; 1.35 µM with HCT-116 colon; 32.5 µM in the experiment on IGROV1 ovarian; greater than 100 µM with LOX IMVI melanoma; greater than 51.2 µM in the experiment on OVCAR-8 ovarian. Also, the TGI with SK-MEL-5 melanoma is 2.52 µM; in the experiment with SN12C renal it was greater than 100 µM; in the experiment with UACC-257 melanoma it was greater than 96.6 µM.

`CC(=O)O/C(C)=C\C(=O)O/N=C(\N)c1ccc(C)cc1`: the TGI is greater than 100 µM in the experiment with A549 NSCLC; 41.5 µM with CCRF-CEM leukemia; greater than 100 µM in the experiment on EKVX NSCLC; 43.1 µM with HCT-116 colon; greater than 100 µM in the experiment on IGROV1 ovarian; greater than 100 µM in the experiment with LOX IMVI melanoma. Also, the TGI was greater than 100 µM in the experiment on OVCAR-8 ovarian, 58.5 µM in the experiment on SK-MEL-5 melanoma, 57.4 µM in the experiment on SN12C renal and greater than 100 µM with UACC-257 melanoma.

Consider `COc1cccc2c1C1=CC(=O)CCC1C(C)(C)O2` (stereo not given), for which the TGI in the experiment on A549 NSCLC, in the experiment on CCRF-CEM leukemia, in the experiment with EKVX NSCLC, in the experiment on HCT-116 colon, in the experiment on IGROV1 ovarian and in the experiment with LOX IMVI melanoma was greater than 100 µM in each case. Besides, the TGI in the experiment on OVCAR-8 ovarian, in the experiment on SK-MEL-5 melanoma, in the experiment with SN12C renal and with UACC-257 melanoma was greater than 100 µM throughout.

As to `COc1ccc(N=Cc2ccc(N(CCC#N)CCC#N)cc2)cc1`, the TGI in the experiment on A549 NSCLC, in the experiment on CCRF-CEM leukemia, in the experiment on EKVX NSCLC, with HCT-116 colon, with IGROV1 ovarian and with LOX IMVI melanoma was greater than 100 µM in each case. Further, the TGI in the experiment with OVCAR-8 ovarian, in the experiment with SK-MEL-5 melanoma, in the experiment on SN12C renal and with UACC-257 melanoma was greater than 100 µM each time.

`CCN(CC)C(=S)SSC1CCCCC1`: the GI50 with A549 NSCLC was 30.9 µM; in the experiment on CCRF-CEM leukemia it was 5.72 µM; in the experiment with EKVX NSCLC it was 30.5 µM; in the experiment on HCT-116 colon it was 12.9 µM; in the experiment with IGROV1 ovarian it was 17.2 µM; in the experiment with LOX IMVI melanoma, 8.6 µM. In addition, the GI50 in the experiment on OVCAR-8 ovarian was 15.8 µM; in the experiment on SK-MEL-5 melanoma it was 12.5 µM; in the experiment on SN12C renal, 15.8 µM; with UACC-257 melanoma, 22.5 µM. Further, the TGI in the experiment with A549 NSCLC is 82.6 µM; in the experiment with CCRF-CEM leukemia, 58.6 µM; with EKVX NSCLC, 91.2 µM; in the experiment with HCT-116 colon it was 25.8 µM; in the experiment with IGROV1 ovarian, 38.4 µM; with LOX IMVI melanoma, 24.3 µM. The TGI was 34.9 µM in the experiment with OVCAR-8 ovarian, 26.3 µM in the experiment with SK-MEL-5 melanoma, 31.2 µM in the experiment with SN12C renal and 65 µM with UACC-257 melanoma.

Turning to `O=C(/C=C/c1ccc([N+](=O)[O-])o1)NNC(=O)c1cc2ccccc2cc1O`, the GI50 in the experiment on A549 NSCLC was 3.95 µM; with CCRF-CEM leukemia, 0.441 µM; in the experiment on EKVX NSCLC, 7.2 µM; in the experiment on HCT-116 colon it was 0.557 µM; in the experiment on IGROV1 ovarian, 3.07 µM; in the experiment with LOX IMVI melanoma it was 0.395 µM. The GI50 with OVCAR-8 ovarian is 1.11 µM; with SK-MEL-5 melanoma it was 0.656 µM; in the experiment on SN12C renal, 1.49 µM; with UACC-257 melanoma, 0.906 µM. Moreover, the TGI in the experiment on A549 NSCLC was greater than 100 µM; in the experiment on CCRF-CEM leukemia it was greater than 100 µM; in the experiment on EKVX NSCLC, greater than 100 µM; in the experiment on HCT-116 colon it was 1.72 µM; with IGROV1 ovarian, greater than 100 µM; in the experiment with LOX IMVI melanoma it was 1.98 µM. For the same compound, the TGI in the experiment with OVCAR-8 ovarian is 20.1 µM; in the experiment on SK-MEL-5 melanoma, 2.04 µM; with SN12C renal, greater than 100 µM; in the experiment on UACC-257 melanoma it was 3.92 µM.
